Reference: US9701689B2, “Substituted pyridines and pyridazines as CCR10 receptor inhibitors” (KYOWA HAKKO KIRIN CO., LTD., priority 2012, dated 2017)

These compounds were tested against T1, human CCR10 (Homo sapiens, UniProt P46092) (assay: CCR10 antagonistic effect: calcium assay of human CCR10 (CTACK-induced increase of intracellular calcium in hCCR10G16 cells)). Conditions: at a concentration of not more than 1000 nmol/L; human CCR10-expressing hCCR10G16 cells, 300 nmol/L CTACK added; read-out: inhibition of increase in the calcium ion concentration.
T1 construct: expressed in transfected cells; host or cells: KJMGER8 cells (Namalwa cell-derived line), beta-estradiol-induced; hCCR10G16 cells
T1 sequence (P46092 1-362): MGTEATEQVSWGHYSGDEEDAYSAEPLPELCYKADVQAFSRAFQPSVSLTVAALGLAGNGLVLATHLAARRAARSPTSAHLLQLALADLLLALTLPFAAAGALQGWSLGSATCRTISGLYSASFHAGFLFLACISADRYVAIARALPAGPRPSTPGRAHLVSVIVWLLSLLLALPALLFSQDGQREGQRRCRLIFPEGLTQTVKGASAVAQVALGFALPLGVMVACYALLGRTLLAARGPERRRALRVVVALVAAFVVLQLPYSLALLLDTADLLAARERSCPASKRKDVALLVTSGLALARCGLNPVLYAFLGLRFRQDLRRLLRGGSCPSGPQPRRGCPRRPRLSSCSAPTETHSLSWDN
Format: cell-based
Procedure, shortened: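 KJMGER8-derived hCCR10G16 cells (CCR10 plus Gα16, induced 24 h with 10 nmol/L β-estradiol), Fluo-3 loaded, preincubated with compound 30 min at 37 °C. Stimulated with CTACK (300 nmol/L solution before addition); calcium read ~5 min by FDSS, max−min fluorescence; % inhibition vs control.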

Row | inhibition at up to 1 µM | Structure (SMILES)
1 | ≥ 50% | Cc1c(S(N)(=O)=O)ncc(C(=O)N2CCC3(CC2)COc2ccccc23)c1NCc1ccccc1 [Compound 261, 4-(benzylamino)-3-methyl-5-(2H-spiro[benzofuran-3,4′-piperidine]-1′-ylcarbonyl)pyridine-2-sulfonamide]
2 | ≥ 50% | COC1(c2ccc(F)cc2)CCN(C(=O)c2cnc(S(N)(=O)=O)c(C)c2NCc2ccccc2)CC1 [Compound 262, 4-(benzylamino)-5-[4-(4-fluorophenyl)-4-methoxypiperidine-1-carbonyl]-3-methylpyridine-2-sulfonamide]
3 | ≥ 50% | Cc1ccc(Nc2c(C(=O)N3CCC(c4ccc(F)cc4)CC3)cnc(S(=O)(=O)Nc3ccon3)c2C)cc1C [Compound 263, 4-(3,4-dimethylphenylamino)-5-[4-(4-fluorophenyl)piperidine-1-carbonyl]-N-(isoxazol-3-yl)-3-methylpyridine-2-sulfonamide]
4 | ≥ 50% | Cc1cccc(Nc2c(C(=O)N3CCC(c4ccc(F)cc4)CC3)cnc(S(=O)(=O)Nc3ccon3)c2C)c1F [Compound 264, 4-(2-fluoro-3-methylphenylamino)-5-[4-(4-fluorophenyl)piperidine-1-carbonyl]-N-(isoxazol-3-yl)-3-methylpyridine-2-sulfonamide]
5 | ≥ 50% | Cc1c(S(=O)(=O)Nc2ccon2)ncc(C(=O)N2CCC(c3ccc(F)cc3)CC2)c1Nc1cccc(Cl)c1F [Compound 265, 4-(3-chloro-2-fluorophenylamino)-5-[4-(4-fluorophenyl)piperidine-1-carbonyl]-N-(isoxazol-3-yl)-3-methylpyridine-2-sulfonamide]
6 | ≥ 50% | Cc1cc(NS(=O)(=O)c2ncc(C(=O)N3CCC(c4ccc(F)cc4)CC3)c(Nc3ccc(F)cc3C)c2C)sn1 [Compound 266, 4-(4-fluoro-2-methylphenylamino)-5-[4-(4-fluorophenyl)piperidine-1-carbonyl]-3-methyl-N-(3-methylisothiazol-5-yl)pyridine-2-sulfonamide]
7 | ≥ 50% | Cc1cc(NS(=O)(=O)c2ncc(C(=O)N3CCC(c4ccc(F)cc4)CC3)c(Nc3cccc(F)c3)c2C)sn1 [Compound 267, 5-[4-(4-fluorophenyl)piperidine-1-carbonyl]-4-(3-fluorophenylamino)-3-methyl-N-(3-methylisothiazol-5-yl)pyridine-2-sulfonamide]
8 | ≥ 50% | COc1ccc(F)c(Nc2c(C(=O)N3CCC(c4ccc(F)cc4)CC3)cnc(S(=O)(=O)Nc3ccon3)c2C)c1 [Compound 268, 4-(2-fluoro-5-methoxyphenylamino)-5-[4-(4-fluorophenyl)piperidine-1-carbonyl]-N-(isoxazol-3-yl)-3-methylpyridine-2-sulfonamide]
9 | ≥ 50% | COc1cc(Nc2c(C(=O)N3CCC(c4ccc(F)cc4)CC3)cnc(S(=O)(=O)Nc3ccon3)c2C)ccc1F [Compound 269, 4-(4-fluoro-3-methoxyphenylamino)-5-[4-(4-fluorophenyl)piperidine-1-carbonyl]-N-(isoxazol-3-yl)-3-methylpyridine-2-sulfonamide]
10 | ≥ 50% | Cc1c(S(=O)(=O)Nc2ccon2)ncc(C(=O)N2CCC(c3ccc(F)cc3)CC2)c1Nc1ccc(Cl)cc1F [Compound 270, 4-(4-chloro-2-fluorophenylamino)-5-[4-(4-fluorophenyl)piperidine-1-carbonyl]-N-(isoxazol-3-yl)-3-methylpyridine-2-sulfonamide]

More lines, now with the values behind:

Row | Structure (SMILES) | inhibition at up to 1 µM
11 | Cc1cccc(Oc2c(C(=O)N3CCC(c4ccc(F)cc4)CC3)cnc(S(=O)(=O)Nc3ccon3)c2C)c1 [Compound 249, 5-[4-(4-fluorophenyl)piperidine-1-carbonyl]-N-(isoxazol-3-yl)-3-methyl-4-(m-tolyloxy)pyridine-2-sulfonamide] | ≥ 50%
12 | Cc1c(S(=O)(=O)Nc2ccn(C)n2)ncc(C(=O)N2CCC(c3ccc(F)cc3)CC2)c1NCc1ccccc1 [Compound 250, 4-(benzylamino)-5-[4-(4-fluorophenyl)piperidine-1-carbonyl]-3-methyl-N-(1-methyl-1H-pyrazol-3-yl)pyridine-2-sulfonamide] | ≥ 50%
13 | Cc1cc(NS(=O)(=O)c2ncc(C(=O)N3CCC(c4ccc(F)cc4)CC3)c(NCc3ccccc3)c2C)sn1 [Compound 251, 4-(benzylamino)-5-[4-(4-fluorophenyl)piperidine-1-carbonyl]-3-methyl-N-(3-methylisothiazol-5-yl)pyridine-2-sulfonamide] | ≥ 50%
14 | Cc1c(S(=O)(=O)Nc2ccon2)ncc(C(=O)N2CCC(c3ccc(F)cc3)CC2)c1Nc1cc(F)ccc1F [Compound 252, 4-(2,5-difluorophenylamino)-5-[4-(4-fluorophenyl)piperidine-1-carbonyl]-N-(isoxazol-3-yl)-3-methylpyridine-2-sulfonamide] | ≥ 50%
15 | Cc1c(S(N)(=O)=O)ncc(C(=O)N2CCN(c3ccc(F)cc3)C(=O)C2)c1NCc1ccccc1 [Compound 253, 4-(benzylamino)-5-[4-(4-fluorophenyl)-3-oxopiperazine-1-carbonyl]-3-methylpyridine-2-sulfonamide] | ≥ 50%
16 | Cc1c(S(=O)(=O)Nc2ccon2)ncc(C(=O)N2CCC(c3ccc(F)cc3)CC2)c1Nc1cccc(F)c1F [Compound 254, 4-(2,3-difluorophenylamino)-5-[4-(4-fluorophenyl)piperidine-1-carbonyl]-N-(isoxazol-3-yl)-3-methylpyridine-2-sulfonamide] | ≥ 50%
17 | Cc1c(S(=O)(=O)Nc2ccon2)ncc(C(=O)N2CCC(c3ccc(F)cc3)CC2)c1Nc1ccccc1F [Compound 255, 5-[4-(4-fluorophenyl)piperidine-1-carbonyl]-4-(2-fluorophenylamino)-N-(isoxazol-3-yl)-3-methylpyridine-2-sulfonamide] | ≥ 50%
18 | N#Cc1cc(OC(F)(F)F)ccc1Nc1c(C(=O)N2CCC(c3ccc(F)cc3)CC2)cnc(S(N)(=O)=O)c1Cl [Compound 256, 3-chloro-4-[2-cyano-4-(trifluoromethoxy)phenylamino]-5-[4-(4-fluorophenyl)piperidine-1-carbonyl]pyridine-2-sulfonamide] | ≥ 50%
19 | N#Cc1ccc(C(F)(F)F)cc1Nc1c(C(=O)N2CCC(c3ccc(F)cc3)CC2)cnc(S(N)(=O)=O)c1Cl [Compound 257, 3-chloro-4-[2-cyano-5-(trifluoromethyl)phenylamino]-5-[4-(4-fluorophenyl)piperidine-1-carbonyl]pyridine-2-sulfonamide] | ≥ 50%
20 | Cc1c(S(=O)(=O)Nc2ccon2)ncc(C(=O)N2CCC(c3ccc(F)cc3)CC2)c1Nc1ccc(F)c(F)c1 [Compound 258, 4-(3,4-difluorophenylamino)-5-[4-(4-fluorophenyl)piperidine-1-carbonyl]-N-(isoxazol-3-yl)-3-methylpyridine-2-sulfonamide] | ≥ 50%
21 | Cc1c(S(=O)(=O)Nc2ccon2)ncc(C(=O)N2CCC(c3ccc(F)cc3)CC2)c1Nc1ccc(Br)cc1 [Compound 260, 4-(4-bromophenylamino)-5-[4-(4-fluorophenyl)piperidine-1-carbonyl]-N-(isoxazol-3-yl)-3-methylpyridine-2-sulfonamide] | ≥ 50%
